Measured values: article PMC6277434, “Discovery of a potent HMG-CoA reductase degrader that eliminates statin-induced reductase accumulation and lowers cholesterol” (Nature Communications, 2018)

What was measured:
[1] = target: T1, HMGCR (TM1-8)-GFP (Cricetulus griseus, UniProt P00347); assay: HMGCR (TM1-8)-GFP fluorescent assay (high-content imaging) in CHG cells; conditions: for Mean (HMGCR (TM1-8)-GFP signal relative to 0 μM = 100): Figure 4 source data
T1 sequence (P00347 1-346): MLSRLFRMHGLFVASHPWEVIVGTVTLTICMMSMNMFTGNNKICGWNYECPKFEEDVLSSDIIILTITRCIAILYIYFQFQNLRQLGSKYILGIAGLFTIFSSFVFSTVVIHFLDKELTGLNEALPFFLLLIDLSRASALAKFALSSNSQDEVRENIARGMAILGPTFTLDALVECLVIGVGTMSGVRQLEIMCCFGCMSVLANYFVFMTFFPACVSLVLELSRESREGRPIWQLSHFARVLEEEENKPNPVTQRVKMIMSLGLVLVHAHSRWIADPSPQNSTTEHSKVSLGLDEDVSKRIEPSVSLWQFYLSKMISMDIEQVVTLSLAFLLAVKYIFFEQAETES
Procedure: (§1) We thus generated a cell line stably expressing the transmembrane domain of HMGCR fused with green fluorescent protein (GFP) as a reporter (HMGCR (TM1-8)-GFP) (Fig. 2a).
(§2) CHO-7 cells were transfected with pCMV-HMGCR (TM1-8)-GFP using FuGENE HD. Twenty-four hours, cells were switched to medium B supplemented with 5% FBS and selected in the presence of 1 mg ml^−1 G418 for 2 weeks. Surviving colonies were isolated and confirmed for GFP expression by immunoblotting and immunofluorescence. The resulting CHO-7/HMGCR (TM1-8)-GFP stable cell line (CHG) was maintained in medium B supplemented with 5% FBS and 200 μg ml^−1 G418.
(§3) CHG cells were treated as described in figure legends. Briefly, cells were seeded at day 0 in 96-well black plate (3904, Corning) at a density of 1.5 × 10^4 cells per well, in medium B containing with 5% LPDS. Day 1, corresponding compounds were added as figure legends described in medium B with 5% LPDS, 1 μM lovastatin, 50 μM sodium mevalonate for 16 h. Then cells were fixed with 4% paraformaldehyde for 20 min, washed with PBS for three times, and stained with 2 μg ml^−1 Hoechst 33342.
(§4) The fluorescent images (GFP and Hoechst channel) were captured using an Operatta High-Content Imaging System (PerkinElmer) with a ×20 objective. The cytoplasmic GFP fluorescence was measured with the Harmony Software (PerkinElmer). Five random selected filed per well were captured, and about 3000 cells were used to determine the mean cytoplasmic GFP fluorescent intensity per cell after subtracting background GFP intensity. The average GFP intensity of DMSO-treated cells was defined as 100.

[2] = target: T2, K89R/K248R HMGCR (Cricetulus griseus, UniProt P00347, K248R/K89R); assay: Degradation of transfected K89R/K248R HMGCR in CHO-7 cells; format: cell-based; set-up: expressed in transfected cells; host or cells: CHO-7 (A20); conditions: transfected CHO-7 cells, 5 h
T2 sequence (P00347 1-887 K89R/K248R): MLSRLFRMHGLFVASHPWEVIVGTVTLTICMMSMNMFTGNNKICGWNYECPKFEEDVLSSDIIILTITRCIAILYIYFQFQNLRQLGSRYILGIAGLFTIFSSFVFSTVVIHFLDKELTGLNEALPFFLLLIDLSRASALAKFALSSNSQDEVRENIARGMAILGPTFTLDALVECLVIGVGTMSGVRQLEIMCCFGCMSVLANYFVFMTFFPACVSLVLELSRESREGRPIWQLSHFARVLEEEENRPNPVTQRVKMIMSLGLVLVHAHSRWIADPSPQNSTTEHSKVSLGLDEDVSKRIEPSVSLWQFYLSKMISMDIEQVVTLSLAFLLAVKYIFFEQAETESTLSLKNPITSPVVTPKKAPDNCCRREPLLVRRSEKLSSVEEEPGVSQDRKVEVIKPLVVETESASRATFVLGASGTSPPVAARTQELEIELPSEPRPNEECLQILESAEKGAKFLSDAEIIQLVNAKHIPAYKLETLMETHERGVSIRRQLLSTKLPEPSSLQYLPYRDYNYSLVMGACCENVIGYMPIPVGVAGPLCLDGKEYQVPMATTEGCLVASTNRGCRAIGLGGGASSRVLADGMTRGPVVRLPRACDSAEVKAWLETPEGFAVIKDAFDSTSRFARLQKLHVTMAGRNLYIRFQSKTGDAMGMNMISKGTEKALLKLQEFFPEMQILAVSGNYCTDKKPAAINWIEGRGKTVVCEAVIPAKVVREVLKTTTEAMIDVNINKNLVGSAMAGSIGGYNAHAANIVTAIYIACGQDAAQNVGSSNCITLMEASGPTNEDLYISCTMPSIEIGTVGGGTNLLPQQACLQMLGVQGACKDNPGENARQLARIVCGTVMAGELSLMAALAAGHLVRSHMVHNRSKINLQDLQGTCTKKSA
Procedure: HMGCR protein of DMSO-treated cells was defined as 100. […] Lysates were immunoprecipitated and pellets were probed for anti-ubiquitin (P4D1) and anti-HMGCR (A9). e CHO-7 cells were transfected with indicated plasmids and treated as in d. Lysates were immunoprecipitated with anti-Flag M2 beads, and pellets were probed for anti-ubiquitin (HA) and anti-HMGCR (Flag). f CHO-7 cells were transfected with indicated plasmids, then treated with Cmpd 81 for 5 h. […] Data are from three independent experiments and presented as mean ± SD. Source data are provided as a Source Data File.
Cells were harvested and homogenized in the RIPA buffer (50 mM Tris-HCl, pH 8.0, 150 mM NaCl, 2 mM MgCl2, 1.5% NP-40, 0.1% SDS, and 0.5% sodium deoxycholate) supplemented with protease cocktail inhibitor, 10 μM MG-132, 10 μg ml^−1 leupeptin and 1 mM phenylmethylsulfonyl fluoride. The protein concentrations of lysates were determined using BCA method (Beyotime). […] Western blot images were captured by Amersham Imager 600 (GE Healthcare), and integrated optical intensities of each band were quantified by Image-Pro Plus 6 software (Media Cybernetics). […]

[3] = target: T1, HMGCR (TM1-8)-GFP
Procedure: as §1, §2, §3, §4

[4] = test system: Hmgcr mRNA; assay: RT-qPCR of exogenous WT and mutated Hmgcr mRNA in Huh7 cells; format: cell-based; conditions: lovastatin
Procedure: Cells were treated as described in corresponding figure legends, then total RNA was extracted from cells or mouse livers using TRI Reagent (T9424, Sigma-Aldrich). Equal amounts of RNA from cells or mice receiving the same treatment were pooled were used for cDNA synthesis with oligo dT and reverse transcriptase MLV (Promega). Gene expression was analyzed by quantitative real-time PCR on a Stratagene Mx30005PTM Q-PCR Systems. The primers used were listed in Supplementary Tables 2–4.
a CHO-7 cells were treated with or without 1 μM lovastatin in medium B with 5%
LDPS and 50 μM mevalonate for 16 h, and harvested for total RNA isolation and
RT-qPCR. Quantifications of the relative mRNA levels of indicated SREBP target
(1 picture or pasted object on this page, not shown here)

[5] = target: T2, K89R/K248R HMGCR; assay: Immunoblotting of overexpressed K89R/K248R HMGCR in Huh7 cells; format: cell-based; set-up: expressed in transfected cells; host or cells: Huh7 (A8); conditions: lovastatin
Procedure: Cells were harvested and homogenized in the RIPA buffer (50 mM Tris-HCl, pH 8.0, 150 mM NaCl, 2 mM MgCl2, 1.5% NP-40, 0.1% SDS, and 0.5% sodium deoxycholate) supplemented with protease cocktail inhibitor, 10 μM MG-132, 10 μg ml^−1 leupeptin and 1 mM phenylmethylsulfonyl fluoride. The protein concentrations of lysates were determined using BCA method (Beyotime). Samples were mixed with the membrane protein solubilization buffer (62.5 mM Tris-HCl, pH 6.8, 15% SDS, 8 M urea, 10% glycerol, and 100 mM DTT) plus the 4× loading buffer (150 mM Tris-HCl, pH 6.8, 12% SDS, 30% glycerol, 6% 2-mercaptoethanol, and 0.02% bromophenol blue) and incubated for 30 min at 37 °C. Proteins were resolved by SDS-PAGE and transferred to nitrocellulose membranes (GE Healthcare). Immnoblots were blocked with 5% non-fat milk in TBS containing 0.075% Tween-20 (TBST) and probed with indicated antibodies overnight at 4 °C. After washing in TBST for five times, blots were incubated with HRP-conjugated secondary antibodies for 2 h at room temperature. Immunoreactivity was developed with Clarity Western ECL chemiluminescent substrates (170–5061, Bio-Rad). Western blot images were captured by Amersham Imager 600 (GE Healthcare), and integrated optical intensities of each band were quantified by Image-Pro Plus 6 software (Media Cybernetics). […]
RT-qPCR. Quantifications of the relative mRNA levels of indicated SREBP target […]

| SMILES | Mean (HMGCR (TM1-8)-GFP signal relative to 0 μM = 100) ([1]; compound 0.156 μM) | Mean (HMGCR (TM1-8)-GFP signal relative to 0 μM = 100) ([1]; compound 0.313 μM) | Mean (HMGCR (TM1-8)-GFP signal relative to 0 μM = 100) ([1]; compound 0.625 μM) | Mean (HMGCR (TM1-8)-GFP signal relative to 0 μM = 100) ([1]; compound 1.25 μM) | Mean (HMGCR (TM1-8)-GFP signal relative to 0 μM = 100) ([1]; compound 2.5 μM) | Mean (HMGCR (TM1-8)-GFP signal relative to 0 μM = 100) ([1]; compound 5 μM) | Mean (HMGCR (TM1-8)-GFP signal relative to 0 μM = 100) ([1]; compound 10 μM) | potency (EC50) relative to 24,25-DHL ([1]; more potent than 24,25-DHL) [fold] | potency (EC50) relative to cholesterol ([1]; more potent than cholesterol) | degradation of K89R/K248R HMGCR [2] | DC50 [3] [nM] | mRNA levels of both WT and mutated Hmgcr [4] | effect on ubiquitination-resistant K89R/K248R HMGCR protein level [5] |
| --- | --- | --- | --- | --- | --- | --- | --- | --- | --- | --- | --- | --- | --- |
| C=CCC(O)(CC=C)CCCC(C)C1CCC2C3C(O)C=C4C(C)(C)C(O)CCC4(C)C3CCC12C (stereo not shown) [Cmpd 81] | 80.6979 | 58.3802 | 35.2515 | 17.0524 | 14.0516 | 2.6212 | 2.9162 | ~4 | approximately 74 fold | blunted the effect | 410 | – | – |
| CC[C@H](C)C(=O)O[C@H]1C[C@@H](C)C=C2C=C[C@H](C)[C@H](CC[C@@H]3C[C@@H](O)CC(=O)O3)[C@H]21 [Lovastatin, lovastatin] | – | – | – | – | – | – | – | – | – | – | – | did not show obvious change | did not induce the protein level further increase |
